Read-outs that look alike come from different tables or passages of the source.
Key:
A549 = assay: cells; type: cell-based; details: for GI50 / CC50 / IC (TGI) / TGI: A549, 48 hours exposure, SRB; for GI50: read-out: GI50; for CC50: read-out: LC50 (the source's name); for IC (TGI): read-out: TGI
Description: (§1) The finality of these assays is to interrupt the growth of a “in vitro” tumor cell culture by means of a continued exhibition of the cells to the sample to be testing.
(§2) A colorimetric type of assay, using sulphorhodamine B (SRB) reaction has been adapted for a quantitative measurement of cell growth and viability [following the technique described by Philip Skehan, et al. (1990), New colorimetric cytotoxicity assay for anticancer drug screening, J. Natl. Cancer Inst., 82:1107-1112]
(§3) This form of the assay employs 96 well cell culture microplates of 9 mm diameter (Faircloth, 1988; Mosmann, 1983). Most of the cell lines are obtained from American Type Culture Collection (ATCC) derived from different human cancer types.
(§4) Cells are maintained in RPMI 1640 10% FBS, supplemented with 0.1 g/l penicillin and 0.1 g/l streptomycin sulphate and then incubated at 37° C., 5% CO2 and 98% humidity. For the experiments, cells were harvested from subconfluent cultures using trypsin and resuspended in fresh medium before plating.
(§5) Cells are seeded in 96 well microtiter plates, at 5×10^3 cells per well in aliquots of 195 μl medium, and they are allowed to attach to the plate surface by growing in drug free medium for 18 hours. Afterward, samples are added in aliquots of 5 μl in a ranging from 10 to 10^−8 μg/ml, dissolved in DMSO/EtOH/PBS (0.5:0.5:99). After 48 hours exposure, the antitumor effect are measured by the SRB methodology: cells are fixed by adding 50 μl of cold 50% (wt/vol) trichloroacetic acid (TCA) and incubating for 60 minutes at 4° C. Plates are washed with deionized water and dried. One hundred μl of SRB solution (0.4% wt/vol in 1% acetic acid) is added to each microtiter well and incubated for 10 minutes at room temperature. Unbound SRB is removed by washing with 1% acetic acid. Plates are air dried and bound stain is solubilized with Tris buffer. Optical densities are read on a automated spectrophotometric plate reader at a single wavelength of 490 nm.
(§6) The values for mean+/− SD of data from triplicate wells are calculated. Some parameters for cellular responses can be calculated: GI=growth inhibition, TGI=total growth inhibition (cytostatic effect) and LC=cell killing (cytotoxic effect).

HT29 = assay: cells; type: cell-based; details: for GI50 / IC (TGI) / CC50 / TGI: HT29, 48 hours exposure, SRB; for CC50: read-out: LC50 (the source's name)
Description: as §1, §2, §3, §4, §5, §6

| SMILES | IC50 (A549; Homo sapiens, A549) [nM] | IC50 (HT29; Homo sapiens, HT-29, HT29) [nM] | GI50 (A549; Homo sapiens, A549, 48 h) [nM] | CC50 (A549; Homo sapiens, A549, 48 h) [nM] | IC (TGI) (A549; Homo sapiens, A549, 48 h) [nM] | GI50 (HT29; Homo sapiens, HT-29, 48 h) [nM] | IC (TGI) (HT29; Homo sapiens, HT-29, 48 h) [nM] | CC50 (HT29; Homo sapiens, HT-29, 48 h) [nM] | GI50 (HT29) [nM] | TGI (HT29) [Molar] | TGI (A549) [Molar] | GI50 (A549) [nM] | CC50 (A549) [nM] | CC50 (HT29) [nM] |
| --- | --- | --- | --- | --- | --- | --- | --- | --- | --- | --- | --- | --- | --- | --- |
| COc1c(C)cc2c(c1O)[C@@H]1C3[C@@H]4SC[C@]5(NCCc6c5[nH]c5ccccc65)C(=O)COC[C@@H](c5c6c(c(C)c(OC(C)=O)c54)OCO6)N3[C@@H](C#N)[C@H](C2)N1C (some centres unmarked) [Compound 1] | 1.31 | 1.31 |  |  |  |  |  |  |  |  |  |  |  |  |
| COc1ccc2[nH]c3c(c2c1)CCN[C@]31CS[C@@H]2c3c(OC(C)=O)c(C)c4c(c3[C@H](COCC1=O)N1C2[C@H]2c3c(cc(C)c(OC)c3O)C[C@@H]([C@@H]1C#N)N2C)OCO4 (some centres unmarked) [Compound 2] |  |  | 0.63 | 63000 | 6.3 | 1.26 | 1.26 | 63000 |  |  |  |  |  |  |
| COc1c(C)cc2c(c1O)[C@@H]1C3[C@@H]4SC[C@]5(NCCc6c5[nH]c5c(OCc7ccccc7)cccc65)C(=O)COC[C@@H](c5c6c(c(C)c(OC(C)=O)c54)OCO6)N3[C@@H](C#N)[C@H](C2)N1C (some centres unmarked) [Compound 3] |  |  | 345 | 57500 | 3450 | 230 | 230 | 57500 |  |  |  |  |  |  |
| COc1c(C)cc2c(c1O)[C@@H]1C3[C@@H]4SC[C@]5(NCCc6c5[nH]c5ccc(OCc7ccccc7)cc65)C(=O)COC[C@@H](c5c6c(c(C)c(OC(C)=O)c54)OCO6)N3[C@@H](C#N)[C@H](C2)N1C (some centres unmarked) [Compound 4] |  |  | 2300 | 11500 | 6900 | 2300 | 2300 | 11500 |  |  |  |  |  |  |
| COc1c(C)cc2c(c1O)[C@@H]1C3[C@@H]4SC[C@]5(NCCc6c5[nH]c5ccc(C)cc65)C(=O)COC[C@@H](c5c6c(c(C)c(OC(C)=O)c54)OCO6)N3[C@@H](C#N)[C@H](C2)N1C (some centres unmarked) [Compound 5] |  |  | 12.9 | 12900 | 129 | 12.9 | 12.9 | 5140 |  |  |  |  |  |  |
| COc1c(C)cc2c(c1O)[C@@H]1C3[C@@H]4SC[C@]5(NCCc6c5[nH]c5ccc(O)cc65)C(=O)COC[C@@H](c5c6c(c(C)c(OC(C)=O)c54)OCO6)N3[C@@H](C#N)[C@H](C2)N1C (some centres unmarked) [Compound 6] |  |  | 5.13 | 12800 | 51.3 | 5.13 | 5.13 | 5130 |  |  |  |  |  |  |
| COc1c(C)cc2c(c1O)[C@@H]1C3[C@@H]4SC[C@]5(NCCc6c5[nH]c5cc(F)ccc65)C(=O)COC[C@@H](c5c6c(c(C)c(OC(C)=O)c54)OCO6)N3[C@@H](C#N)[C@H](C2)N1C (some centres unmarked) [Compound 7] |  |  | 767 | 1280 | 128 | 63.9 | 63.9 | 1280 |  |  |  |  |  |  |
| COc1c(C)cc2c(c1O)[C@@H]1C3[C@@H]4SC[C@]5(C(=O)COC[C@@H](c6c7c(c(C)c(OC(C)=O)c64)OCO7)N3[C@@H](C#N)[C@H](C2)N1C)c1[nH]c2ccc(O)cc2c1CCN5C (some centres unmarked) [Compound 8] |  |  | 2.52 | 12600 | 10.1 | 2.52 | 2.52 | 5040 |  |  |  |  |  |  |
| COc1ccc2c3c([nH]c2c1)[C@@]1(CS[C@@H]2c4c(OC(C)=O)c(C)c5c(c4[C@H](COCC1=O)N1C2[C@H]2c4c(cc(C)c(OC)c4O)C[C@@H]([C@@H]1C#N)N2C)OCO5)NCC3 (some centres unmarked) [Compound 9] |  |  | 25.2 | 8820 | 101 | 378 | 378 | 12600 |  |  |  |  |  |  |
| COc1c(C)cc2c(c1O)[C@@H]1C3[C@@H]4SC[C@]5(NCCc6c5[nH]c5ccc(F)cc65)C(=O)COC[C@@H](c5c6c(c(C)c(OC(C)=O)c54)OCO6)N3[C@@H](C#N)[C@H](C2)N1C (some centres unmarked) [Compound 10] |  |  | 39.1 | 12800 | 128 | 40.3 | 12800 | 12800 |  |  |  |  |  |  |
| COc1c(C)cc2c(c1O)[C@@H]1C3[C@@H]4SC[C@]5(NCCc6c5[nH]c5c(C)cccc65)C(=O)COC[C@@H](c5c6c(c(C)c(OC(C)=O)c54)OCO6)N3[C@@H](C#N)[C@H](C2)N1C (some centres unmarked) [Compound 11] |  |  | 18.9 | 129 | 50 | 30.9 | 129 | 12900 |  |  |  |  |  |  |
| COc1c(C)cc2c(c1O)[C@@H]1C3[C@@H]4SC[C@]5(NC(C)Cc6c5[nH]c5ccc(O)cc65)C(=O)COC[C@@H](c5c6c(c(C)c(OC(C)=O)c54)OCO6)N3[C@@H](C#N)[C@H](C2)N1C (some centres unmarked) [Compound 12] |  |  | 7.28 | 12600 | 83.5 |  |  | 12600 | 13.7 | 1.26E−07 |  |  |  |  |
| COc1c(C)cc2c(c1O)[C@@H]1C3[C@@H]4SC[C@]5(NC(C)Cc6c5[nH]c5ccc(O)cc65)C(=O)COC[C@@H](c5c6c(c(C)c(OC(C)=O)c54)OCO6)N3[C@@H](C#N)[C@H](C2)N1C (some centres unmarked) [Compound 13] |  |  |  |  |  |  |  |  | 333 | 1.26E−06 | 6.79E−08 | 6.31 | 12600 | 12600 |
| COc1c(C)cc2c(c1O)[C@@H]1C3[C@@H]4SC[C@]5(C(=O)COC[C@@H](c6c7c(c(C)c(OC(C)=O)c64)OCO7)N3[C@@H](C#N)[C@H](C2)N1C)c1[nH]c2ccccc2c1CCN5C (some centres unmarked) [Compound 15] |  |  |  |  |  |  |  | 13100 | 4.16 | 1.31E−08 | 1.31E−08 | 4.78 | 1270 |  |
| COc1c(C)cc2c(c1O)[C@@H]1C3[C@@H]4SC[C@]5(NC(C)Cc6c5[nH]c5ccc(F)cc65)C(=O)COC[C@@H](c5c6c(c(C)c(OC(C)=O)c54)OCO6)N3[C@@H](C#N)[C@H](C2)N1C (some centres unmarked) [Compound 16] |  |  |  | 4440 |  | 42.8 |  | 12800 |  | 1.28E−07 | 1.28E−07 | 36.7 |  |  |
| COc1c(C)cc2c(c1O)[C@@H]1C3[C@@H]4SC[C@]5(NC(C)Cc6c5[nH]c5ccc(F)cc65)C(=O)COC[C@@H](c5c6c(c(C)c(OC(C)=O)c54)OCO6)N3[C@@H](C#N)[C@H](C2)N1C (some centres unmarked) [Compound 17] |  |  |  |  |  |  |  |  | 22.2 | 1.28E−08 | 4.41E−08 | 5.39 | 6670 | 12800 |
| COc1c(C)cc2c(c1O)[C@@H]1C3[C@@H]4SC[C@]5(NC(C)Cc6c5[nH]c5ccccc65)C(=O)COC[C@@H](c5c6c(c(C)c(OC(C)=O)c54)OCO6)N3[C@@H](C#N)[C@H](C2)N1C (some centres unmarked) [Compound 18] |  |  |  | 12900 |  | 5.62 | 129 | 12900 |  |  | 1.29E−07 | 6.77 |  |  |
| COc1c(C)cc2c(c1O)[C@@H]1C3[C@@H]4SC[C@]5(NC(C)Cc6c5[nH]c5ccccc65)C(=O)COC[C@@H](c5c6c(c(C)c(OC(C)=O)c54)OCO6)N3[C@@H](C#N)[C@H](C2)N1C (some centres unmarked) [Compound 19] |  |  |  |  |  |  |  |  | 4.45 | 1.29E−07 | 1.29E−08 | 3.27 | 12900 | 12900 |
| CCCC(=O)Oc1c(OC)c(C)cc2c1[C@@H]1C3[C@@H]4SC[C@]5(NCCc6c5[nH]c5ccccc65)C(=O)COC[C@@H](c5c6c(c(C)c(OC(C)=O)c54)OCO6)N3[C@@H](C#N)[C@H](C2)N1C (some centres unmarked) [Compound 20] |  |  | 330 | 6770 | 1200 | 596 | 12000 | 12000 |  |  |  |  |  |  |
| COc1c(C)cc2c(c1OC(=O)OC(C)(C)C)[C@@H]1C3[C@@H]4SC[C@]5(NCCc6c5[nH]c5ccccc65)C(=O)COC[C@@H](c5c6c(c(C)c(OC(C)=O)c54)OCO6)N3[C@@H](C#N)[C@H](C2)N1C (some centres unmarked) [Compound 21] |  |  | 758 | 11600 | 6990 | 1180 | 11600 | 11600 |  |  |  |  |  |  |
| C=COC(=O)Oc1c(OC)c(C)cc2c1[C@@H]1C3[C@@H]4SC[C@]5(NCCc6c5[nH]c5ccccc65)C(=O)COC[C@@H](c5c6c(c(C)c(OC(C)=O)c54)OCO6)N3[C@@H](C#N)[C@H](C2)N1C (some centres unmarked) [Compound 22] |  |  | 39.3 | 12000 | 120 | 120 | 5700 | 12000 |  |  |  |  |  |  |

Reference: US7763615B2, “Ecteinascidin analogs for use as antitumour agents” (priority 2001, dated 2010)
